Reference: patent US9750698B2, “Controlled release compositions of agents that reduce circulating levels of platelets and methods therefor” (BioVascular, Inc., priority 2008, dated 2017)
Read-outs that look alike come from different tables or passages of the source.

Experiments:
[1] = Repeat-dose dose-escalation study of controlled release anagrelide: pharmacokinetics; assay type: in vivo, human; conditions: for half-life / AUC0-inf / AUC / Cmax / Tmax / AUC0-t: human, plasma, oral; for AUC0-inf / AUC / Cmax / AUC0-t: dose-normalized to 0.2 mg; for AUC0-inf: read-out: AUC0-inf; for AUC: read-out: AUC0-τ; for Cmax: read-out: Cmax; for Tmax: median; for AUC0-t: read-out: AUC0-t
Procedure: A placebo-controlled, double-blind repeat-dose, dose-escalation, sequential cohort study was conducted to evaluate the pharmacokinetics and pharmacodynamics of a controlled release composition of anagrelide as described herein in healthy subjects. An objective of the study was to explore the dose-response relationship for effects on platelet counts of a low dose range of a composition of anagrelide as described herein in healthy subjects. Other objectives of the study included determining the time course of effect and recovery of a range of doses of the composition including anagrelide on platelet count, determining the effects of a range of doses of the anagrelide compositions on platelet aggregation (collagen and ADP as agonists), determining the single and repeat dose pharmacokinetics of the anagrelide composition, and exploring the safety and tolerability of the compositions given as single doses and repeatedly for up to 21 days.
Eligible subjects were treated as follows: • Subjects were admitted to the unit on day 1 in the morning after an overnight fast and remain in the unit until 4 hours after morning dosing on day 5. • Subjects received a single dose of controlled release composition including anagrelide (or matching placebo) on day 1 in the morning. • Subjects commenced repeat dosing twice a day with the controlled release anagrelide composition on the morning of day 3 and remained in the unit until 4 hours after morning dose on day 5. • Subjects continued repeat twice a day dosing with the controlled release anagrelide composition as outpatients. Dosing continued until the morning of day 23. • All morning doses were taken after an overnight fast of at least 8 hour. • All evening doses were taken at least 2 hour after food consumption. No food was to be consumed for at least 1 hour after any dose (4 hours for the morning doses on day 1 and day 23). • On day 6-day 21, blood was taken pre-dosing of the controlled release anagrelide composition for full blood count (FBC) and platelet count (every day), trough PK (day 7, day 10, day 13, day 16 and day 19) and clinical chemistry (day 13). • Subjects were readmitted to the unit on the morning of day 22 and remained there until day 25 so that the PK of the final dose of the controlled release composition containing anagrelide on day 23 could be followed for 48 hours. • Subjects returned to the clinic daily from day 26 to day 31 for FBC and platelet counts. • Subjects returned for a follow up visit 14-16 days after the last dose of the controlled release composition containing anagrelide. Study Population:
A controlled release composition of anagrelide as described above in Table 4 of Example 1 (composition 2 fast release with seal coat) was used in unit doses of 100 μg and 300 μg, administered orally.
In this protocol, 4 cohorts of 200 μg, 300 μg, 400 μg and 600 μg doses of the controlled release composition including anagrelide administered twice daily were studied.
Platelet count, collagen-induced platelet aggregation, ADP induced platelet aggregation, template bleeding time, AUC0-t, AUC0-∞, Cmax, Cmin, t1/2, λZ and tmax were determined.
The starting dose of 200 μg (as a single dose on day 1 and then twice a day for 21 days) was chosen as a dose unlikely to cause any clinically significant reduction in platelet counts in healthy subjects. This starting dose was chosen because identification of the lowest dose of the controlled release composition containing anagrelide producing any effect on platelet counts was of interest. In each subsequent cohort the dose was increased by […] twice a day with the objective of identifying the dose range that lowers platelet counts by 30-50%. With daily monitoring of platelet counts, this escalation was determined to allow identification of the effective dose range of the controlled release composition of anagrelide without placing the subjects at significant clinical risk.

cultured megakaryocytes [2] = test: In vitro studies of cultured megakaryocytes (TPO inhibition effects, megakaryocytopoiesis); assay type: cell-based; conditions: at 310.55 g/mol
[3] = 38 volunteers, single 1 mg dose of immediate release anagrelide (Agrylin); cited from earlier work
[4] = patients with ET or other myeloproliferative diseases; cited from earlier work
cAMP PDE = conditions: sonicated human platelets; read-out: IC50 for inhibition of cAMP PDE activity; cited from earlier work
cGMP PDE = conditions: sonicated human platelets; read-out: IC50 for inhibition of cGMP PDE activity; cited from earlier work
cultured megakaryocytes [5] = conditions: cultured megakaryocytes; cited from earlier work
[6] = cited from earlier work
CYP1A2 = CYP1A2 (Homo sapiens, UniProt P05177); conditions: cited from earlier work
Chain of CYP1A2 (P05177 whole entry): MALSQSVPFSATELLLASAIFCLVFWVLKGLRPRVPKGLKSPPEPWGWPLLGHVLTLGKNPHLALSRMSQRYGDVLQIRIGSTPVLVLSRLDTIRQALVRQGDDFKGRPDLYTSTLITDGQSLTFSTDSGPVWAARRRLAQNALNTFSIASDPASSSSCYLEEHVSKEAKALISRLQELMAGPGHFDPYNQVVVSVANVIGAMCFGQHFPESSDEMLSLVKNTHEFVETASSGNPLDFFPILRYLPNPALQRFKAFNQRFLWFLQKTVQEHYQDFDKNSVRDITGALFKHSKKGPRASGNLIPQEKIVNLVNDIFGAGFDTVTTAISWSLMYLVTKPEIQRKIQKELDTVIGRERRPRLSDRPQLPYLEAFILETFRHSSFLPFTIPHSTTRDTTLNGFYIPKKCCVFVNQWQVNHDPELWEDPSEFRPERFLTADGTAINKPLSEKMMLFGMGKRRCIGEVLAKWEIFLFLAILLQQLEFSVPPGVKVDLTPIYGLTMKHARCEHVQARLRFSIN

[7] = cited from earlier work; remark: listed apart in the source
circulating platelets = conditions: patients with essential thrombocythemia, immediate release form 3 mg/day, after approximately 10 days; cited from earlier work
[8] = 0.2 mg, cohort 1 (0.2 mg), day 1
[9] = 0.2 mg, cohort 1 (0.2 mg), day 23
[10] = 0.3 mg, cohort 4 (0.3 mg), day 1
[11] = 0.3 mg, cohort 4 (0.3 mg), day 23
[12] = 0.4 mg, cohort 2 (0.4 mg), day 1
[13] = 0.4 mg, cohort 2 (0.4 mg), day 23
[14] = 0.6 mg, cohort 3 (0.6 mg), day 1
[15] = 14C labelled anagrelide in humans

O=C1CN2Cc3c(ccc(Cl)c3Cl)N=C2N1 [anagrelide, 6,7-dichloro-1,5-dihydroimidazo-[2,1-b]quinazolin-2(3H)-one]
Kel ([1]; cohort 1 (0.2 mg), day 1): 0.1908 h⁻¹
Kel ([1]; cohort 1 (0.2 mg), day 23): 0.0871 h⁻¹
Kel ([1]; cohort 2 (0.4 mg), day 1): 0.0426 h⁻¹
Kel ([1]; cohort 2 (0.4 mg), day 23): 0.0567 h⁻¹
Kel ([1]; cohort 3 (0.6 mg), day 1): 0.0490 h⁻¹
Kel ([1]; cohort 4 (0.3 mg), day 1): 0.1685 h⁻¹
Kel ([1]; cohort 4 (0.3 mg), day 23): 0.0321 h⁻¹
half-life [1, 8]: 22.9 h
half-life [1, 9]: 34.3 h
AUC0-inf [1, 8]: 2.45 ng·h/mL
AUC [1, 8]: 1.75 ng·h/mL
Cmax [1, 8]: 0.334 ng/mL
AUC0-inf [1, 9]: 3.25 ng·h/mL
AUC [1, 9]: 2 ng·h/mL
Cmax [1, 9]: 0.354 ng/mL
Tmax [1, 8]: 4 h
Tmax [1, 9]: 3 h
half-life [1, 10]: 14.3 h
half-life [1, 11]: 21.6 h
AUC0-inf [1, 10]: 2.24 ng·h/mL
AUC [1, 10]: 1.63 ng·h/mL
Cmax [1, 10]: 0.284 ng/mL
AUC0-inf [1, 11]: 2.1 ng·h/mL
AUC [1, 11]: 1.87 ng·h/mL
Cmax [1, 11]: 0.224 ng/mL
Tmax [1, 10]: 3.61 h
Tmax [1, 11]: 2 h
half-life [1, 12]: 56.1 h
half-life [1, 13]: 15.1 h
AUC0-inf [1, 12]: 3.48 ng·h/mL
AUC [1, 12]: 1.48 ng·h/mL
Cmax [1, 12]: 0.234 ng/mL
AUC0-inf [1, 13]: 3.28 ng·h/mL
AUC [1, 13]: 2.26 ng·h/mL
Cmax [1, 13]: 0.331 ng/mL
Tmax [1, 12]: 3.51 h
Tmax [1, 13]: 3.02 h
half-life [1, 14]: 19.5 h
AUC0-inf [1, 14]: 2.74 ng·h/mL
AUC [1, 14]: 1.96 ng·h/mL
Cmax [1, 14]: 0.304 ng/mL
Tmax [1, 14]: 4 h
AUC0-t ([1]; cohort 1 (0.2 mg), day 1): 1.72 ng·h/mL
AUC0-t ([1]; cohort 2 (0.4 mg), day 1): 1.66 ng·h/mL
AUC0-t ([1]; cohort 3 (0.6 mg), day 1): 2.26 ng·h/mL
AUC0-t ([1]; cohort 4 (0.3 mg), day 1): 1.82 ng·h/mL
Concentrations at which TPO inhibition effects are seen (molar equivalent) (cultured megakaryocytes [2]): 0.032 to 0.16 µM
AUC0-inf ± RSD (%) [3]: 11.1 ± 37.6 ng·h/mL
Cmax ± RSD (%) [3]: 4.99 ± 74.4 ng/mL
Tmax ± RSD (%) [3]: 1.3 ± 53.8 h
Observed half-life [4]: about 1.7 h
Share of all drug-related products in the plasma [4]: less than 20%
IC50 (cAMP PDE): 0.054 µM
IC50 (cGMP PDE): 34 µM
Concentrations at which TPO inhibition effects are seen (cultured megakaryocytes [5]): 0.01 to 5 µg/mL
Eliminated via the kidneys [6, 15]: > 70%
Excreted in the feces [6, 15]: approximately 10%
Terminal half-life ([6]; commercially available instant release formulation): 1.7 h
Drug-drug interactions with hydroxycarbamide or aspirin ([6]; in vivo): No drug-drug interactions were identified
Absorption in the gastrointestinal tract ([6]; oral, marketed immediate release formulation): about 70%
Level of CYP1A2 inhibition relative to therapeutic exposure (CYP1A2): about 900 fold
Solubility in diethyl ether or n-heptane [7]: insoluble
Solubility in dimethylsulfoxide and N,N-dimethylformamide [7]: sparingly soluble
Solubility in water [7]: very slightly soluble
Decrease in the number of circulating platelets (circulating platelets): 30-50%
